Measurements published in ChEMBL document CHEMBL5316329, “Structure-Based Optimization of 2,4,5-Trisubstituted Pyrimidines as Potent HIV-1 Non-Nucleoside Reverse Transcriptase Inhibitors: Exploiting the Tolerant Regions of the Non-Nucleoside Reverse Transcriptase Inhibitors' Binding Pocket” (J Med Chem, 2023).

Columns and labels:
[1] = tested on: Human immunodeficiency virus 1; experiment: Antiviral activity against wild-type HIV-1 IIIB infected in human MT4 cells assessed as virus-induced cytopathicity treated for 5 days by MTT assay; type: functional, organism-based; details: Human immunodeficiency virus 1, IIIB, MT4, 120 h
[2] = tested on: Human immunodeficiency virus 1; experiment: Antiviral activity against NNRTI-resistant HIV-1 RES056 infected in human MT4 cells assessed as virus-induced cytopathicity treated for 5 days by MTT assay; type: functional, organism-based; details: Human immunodeficiency virus 1, RES056, MT4, 120 h
[3] = Cytotoxicity against human MT4 cells assessed as reduction in cell viability treated for 5 days by MTT assay; type: toxicity, cell-based; details: time 5 day
[4] = Selectivity index, ratio of CC50 for human MT4 cells to EC50 for wild-type HIV-1 IIIB infected in human MT4 cells; type: toxicity, cell-based; details: read-out: Selectivity Index
[5] = Selectivity index, ratio of CC50 for human MT4 cells to EC50 for NNRTI-resistant HIV-1 RES056 infected in human MT4 cells; type: toxicity, cell-based; details: read-out: Selectivity Index
[6] = molecular target: Human immunodeficiency virus type 1 reverse transcriptase (Human immunodeficiency virus 1, UniProt Q72547); experiment: Inhibition of wild-type HIV-1 reverse transcriptase assessed as inhibition of biotin-dUTP incorporation
[7] = tested on: Human immunodeficiency virus 1; experiment: Antiviral activity against HIV-1 harboring L100I mutant infected in human MT4 cells assessed as virus-induced cytopathicity treated for 5 days by MTT assay; type: functional, organism-based; details: Human immunodeficiency virus 1, MT4, 120 h
[8] = tested on: Human immunodeficiency virus 1; experiment: Antiviral activity against HIV-1 harboring Y181C mutant infected in human MT4 cells assessed as virus-induced cytopathicity treated for 5 days by MTT assay; type: functional, organism-based; details: Human immunodeficiency virus 1, MT4, 120 h

Cc1cc(/C=C/C#N)cc(C)c1Oc1nc(NC2CCN(Cc3ccc(S(C)(=O)=O)cc3)CC2)ncc1-c1ccccc1O
EC50 [1]: 9.04 nM | EC50 [2]: 376 nM | CC50 at 120 h [3]: 6730 nM | selectivity ratio [4]: 745 | selectivity ratio [5]: 18 | IC50 [6]: 328 nM

Cc1cc(/C=C/C#N)cc(C)c1Oc1nc(NC2CCN(Cc3ccc(S(N)(=O)=O)cc3)CC2)ncc1-c1cccc(F)c1
EC50 [1]: 9.55 nM | EC50 [2]: 132 nM | CC50 at 120 h [3]: 14200 nM | selectivity ratio [4]: 1490 | selectivity ratio [5]: 108 | IC50 [6]: 194 nM

Cc1cc(/C=C/C#N)cc(C)c1Oc1nc(NC2CCN(Cc3ccc(C(N)=O)cc3)CC2)ncc1-c1ccc(O)cc1
EC50 [1]: 5.66 nM | EC50 [2]: 150 nM | CC50 at 120 h [3]: 21300 nM | selectivity ratio [4]: 3760 | selectivity ratio [5]: 142 | IC50 [6]: 171 nM

Cc1cc(/C=C/C#N)cc(C)c1Oc1nc(NC2CCN(Cc3ccc(C(N)=O)cc3)CC2)ncc1-c1cccc(F)c1
EC50 [1]: 6.11 nM | EC50 [2]: 113 nM | CC50 at 120 h [3]: 11300 nM | selectivity ratio [4]: 1850 | selectivity ratio [5]: 100 | IC50 [6]: 163 nM

Cc1cc(/C=C/C#N)cc(C)c1Cc1nc(NC2CCN(Cc3ccc(C(N)=O)cc3)CC2)ncc1-c1cnc(N)nc1
EC50 [1]: 6.82 nM | EC50 [2]: 68.6 nM | CC50 at 120 h [3]: 3070 nM | selectivity ratio [4]: 451 | selectivity ratio [5]: 45 | IC50 [6]: 157 nM

Cc1cc(/C=C/C#N)cc(C)c1Oc1nc(NC2CCN(Cc3ccc(C(N)=O)cc3)CC2)ncc1-c1ccc(F)cc1
EC50 [1]: 5.15 nM | EC50 [2]: 53.5 nM | CC50 at 120 h [3]: 8230 nM | selectivity ratio [4]: 1600 | selectivity ratio [5]: 154 | IC50 [6]: 130 nM

CC(=O)c1ccc(-c2cnc(NC3CCN(Cc4ccc(C(N)=O)cc4)CC3)nc2Oc2c(C)cc(/C=C/C#N)cc2C)cc1
EC50 [1]: 5.16 nM | EC50 [2]: 55.5 nM | CC50 at 120 h [3]: 11100 nM | selectivity ratio [4]: 2160 | selectivity ratio [5]: 201 | IC50 [6]: 175 nM

Cc1cc(/C=C/C#N)cc(C)c1Oc1nc(NC2CCN(Cc3ccc(S(C)(=O)=O)cc3)CC2)ncc1-c1ccc(F)cc1
EC50 [1]: 5.09 nM | EC50 [2]: 101 nM | CC50 at 120 h [3]: 4340 nM | selectivity ratio [4]: 853 | selectivity ratio [5]: 43 | IC50 [6]: 145 nM

Cc1cc(/C=C/C#N)cc(C)c1Oc1nc(NC2CCN(Cc3ccc(S(C)(=O)=O)cc3)CC2)ncc1-c1cccc(F)c1
EC50 [1]: 7.26 nM | EC50 [2]: 123 nM | CC50 at 120 h [3]: 6650 nM | selectivity ratio [4]: 916 | selectivity ratio [5]: 54 | IC50 [6]: 228 nM

Cc1cc(/C=C/C#N)cc(C)c1Oc1nc(NC2CCN(Cc3ccc(S(C)(=O)=O)cc3)CC2)ncc1-c1ccccc1F
EC50 [1]: 6.81 nM | EC50 [2]: 183 nM | CC50 at 120 h [3]: 11600 nM | selectivity ratio [4]: 1710 | selectivity ratio [5]: 63 | IC50 [6]: 161 nM

Cc1cc(/C=C/C#N)cc(C)c1Oc1nc(NC2CCN(Cc3ccc(S(C)(=O)=O)cc3)CC2)ncc1-c1cccc(N)c1
EC50 [1]: 6.05 nM | EC50 [2]: 52.8 nM | CC50 at 120 h [3]: 4120 nM | selectivity ratio [4]: 682 | selectivity ratio [5]: 78 | IC50 [6]: 136 nM

Cc1cc(/C=C/C#N)cc(C)c1Oc1nc(NC2CCN(Cc3ccc(S(C)(=O)=O)cc3)CC2)ncc1-c1cccc(O)c1
EC50 [1]: 5.76 nM | EC50 [2]: 68 nM | CC50 at 120 h [3]: 4350 nM | selectivity ratio [4]: 756 | selectivity ratio [5]: 64 | IC50 [6]: 164 nM

Cc1cc(/C=C/C#N)cc(C)c1Cc1nc(NC2CCN(Cc3ccc(S(C)(=O)=O)cc3)CC2)ncc1-c1cnc(N)nc1
EC50 [1]: 4.16 nM | EC50 [2]: 29.8 nM | CC50 at 120 h [3]: 1730 nM | selectivity ratio [4]: 416 | selectivity ratio [5]: 58 | IC50 [6]: 108 nM

Cc1cc(C#N)cc(C)c1Oc1nc(Nc2ccc(C#N)cc2)nc(N)c1Br [ETRAVIRINE]
EC50 [2]: 52.2 nM | CC50 at 120 h [3]: > 4590 nM | EC50 ([7]; read-out: EC50): 11.7 nM | EC50 ([7]; read-out: pEC50 (converted)): 11.7 nM | EC50 ([8]; read-out: EC50): 16.6 nM | EC50 ([8]; read-out: pEC50 (converted)): 17 nM

Cc1cc(/C=C/C#N)cc(C)c1Oc1nc(NC2CCN(Cc3ccc(C(N)=O)cc3)CC2)ncc1-c1ccccc1O
EC50 [1]: 5.99 nM | EC50 [2]: 123 nM | CC50 at 120 h [3]: 11200 nM | selectivity ratio [4]: 1870 | selectivity ratio [5]: 91 | IC50 [6]: 178 nM

CC(=O)c1ccc(-c2cnc(NC3CCN(Cc4ccc(S(C)(=O)=O)cc4)CC3)nc2Oc2c(C)cc(/C=C/C#N)cc2C)cc1
EC50 [1]: 5.48 nM | EC50 [2]: 93.4 nM | CC50 at 120 h [3]: 8460 nM | selectivity ratio [4]: 1540 | selectivity ratio [5]: 91 | IC50 [6]: 199 nM

Cc1cc(/C=C/C#N)cc(C)c1Oc1nc(NC2CCN(Cc3ccc(S(N)(=O)=O)cc3)CC2)ncc1-c1ccccc1N
EC50 [1]: 5.76 nM | EC50 [2]: 91 nM | CC50 at 120 h [3]: 5490 nM | selectivity ratio [4]: 953 | selectivity ratio [5]: 60 | IC50 [6]: 159 nM

Cc1cc(/C=C/C#N)cc(C)c1Oc1nc(NC2CCN(Cc3ccc(S(C)(=O)=O)cc3)CC2)ncc1-c1ccc2c(c1)OCO2
EC50 [1]: 5.53 nM | EC50 [2]: 59 nM | CC50 at 120 h [3]: 4290 nM | selectivity ratio [4]: 776 | selectivity ratio [5]: 73 | IC50 [6]: 161 nM

Cc1cc(/C=C/C#N)cc(C)c1Oc1nc(NC2CCN(Cc3ccc(C(N)=O)cc3)CC2)ncc1-c1ccccc1F
EC50 [1]: 7.4 nM | EC50 [2]: 192 nM | CC50 at 120 h [3]: 10500 nM | selectivity ratio [4]: 1420 | selectivity ratio [5]: 55 | IC50 [6]: 154 nM

Cc1cc(/C=C/C#N)cc(C)c1Oc1nc(NC2CCN(Cc3ccc(S(C)(=O)=O)cc3)CC2)ncc1-c1ccc(O)cc1
EC50 [1]: 5.67 nM | EC50 [2]: 50.9 nM | CC50 at 120 h [3]: 5410 nM | selectivity ratio [4]: 956 | selectivity ratio [5]: 106 | IC50 [6]: 97 nM

Cc1cc(/C=C/C#N)cc(C)c1Cc1nc(NC2CCN(Cc3ccc(S(N)(=O)=O)cc3)CC2)ncc1-c1cnc(N)nc1
EC50 [1]: 4.44 nM | EC50 [2]: 32.3 nM | CC50 at 120 h [3]: 2740 nM | selectivity ratio [4]: 617 | selectivity ratio [5]: 85 | IC50 [6]: 85 nM

Cc1cc(/C=C/C#N)cc(C)c1Oc1nc(NC2CCN(Cc3ccc(C(N)=O)cc3)CC2)ncc1-c1ccccc1N
EC50 [1]: 4.4 nM | EC50 [2]: 49.3 nM | CC50 at 120 h [3]: 11700 nM | selectivity ratio [4]: 2680 | selectivity ratio [5]: 239 | IC50 [6]: 122 nM

Cc1cc(/C=C/C#N)cc(C)c1Oc1nc(NC2CCN(Cc3ccc(S(N)(=O)=O)cc3)CC2)ncc1-c1ccccc1F
EC50 [1]: 3.96 nM | EC50 [2]: 101 nM | CC50 at 120 h [3]: 10900 nM | selectivity ratio [4]: 2760 | selectivity ratio [5]: 107 | IC50 [6]: 130 nM

Cc1cc(/C=C/C#N)cc(C)c1Oc1nc(NC2CCN(Cc3ccc(S(N)(=O)=O)cc3)CC2)ncc1-c1ccc(F)cc1
EC50 [1]: 4.98 nM | EC50 [2]: 67.8 nM | CC50 at 120 h [3]: 9630 nM | selectivity ratio [4]: 1930 | selectivity ratio [5]: 142 | IC50 [6]: 137 nM

Cc1cc(/C=C/C#N)cc(C)c1Oc1nc(NC2CCN(Cc3ccc(S(C)(=O)=O)cc3)CC2)ncc1-c1ccccc1N
EC50 [1]: 5.89 nM | EC50 [2]: 109 nM | CC50 at 120 h [3]: 5110 nM | selectivity ratio [4]: 868 | selectivity ratio [5]: 47 | IC50 [6]: 178 nM

Cc1cc(/C=C/C#N)cc(C)c1Oc1nc(NC2CCN(Cc3ccc(S(N)(=O)=O)cc3)CC2)ncc1-c1ccccc1O
EC50 [1]: 9.15 nM | EC50 [2]: 172 nM | CC50 at 120 h [3]: 12500 nM | selectivity ratio [4]: 1370 | selectivity ratio [5]: 72 | IC50 [6]: 205 nM
